Data from publication PMC9386018, “A lymphatic-absorbed multi-targeted kinase inhibitor for myelofibrosis therapy” (Nature Communications, 2022).
“And” between values parts separate entries of the source, which are not always exact repeats. Equal values may be shown once.

Tests used:
BRAF = BRAF (Homo sapiens, UniProt P15056); assay: Target kinase 10-point inhibition assay, BRAF; format: biochemical; conditions: replicates
Text: The average percent kinase inhibition from replicate data was ranked low to high, converted to a compatible identifier format, then input into Coral Human Kinome Visualization software for presentation analysis. […] Scaling of evolutionary distance for PI kinases is only relative and is based on literature analysis[62],[63]. Average percent kinome inhibition values from replicate data are supplied in Source Data file. […] Corrected data was normalized to vehicle treated control values, and dose response percent kinase activity was analyzed by non-linear regression for determination of IC50 values.

[1] = tested on: phosphorylated AKT (pAKT; pS473) in SET-2 cells; assay: Phospho-flow cytometry of pAKT in SET-2 cells; format: cell-based, human; conditions: 5 μM, 16 h
Procedure: (§1) The human megakaryoblastic cell line, SET-2 (ATCC), was maintained in RPMI 1640 supplemented with 20% FBS and incubated for 16 h at 10^6 cells mL^−1 with LP-182 or vehicle (DMSO; dimethyl sulfoxide), then washed in ice-cold PBS, and collected for flow cytometry analysis. Single-cell suspensions of mouse spleen were prepared from MPL^W515L MF mice (below) in RPMI 1640 supplemented with 5% FCS. Red blood cells were lysed by ammonium chloride-mediated red cell lysis (RCL) buffer and passed through a nylon mesh, and then cells were counted. For intracellular phospho-protein staining, SET-2 or spleen cells were fixed and then permeabilized using BD Phospho-flow fixation buffer and Perm-Buffer III (BD biosciences) according to the manufacturer’s protocol. Intracellular phospho-protein staining was performed using fluorochrome-conjugated antibodies, pAKT (pS473)-Alexa Fluor 647 (MB89-61) or pERK1/2 (pT202/pY204)-Alexa Fluor 647 (20 A). All phospho-flow antibodies were purchased from BD Biosciences. […] Flow cytometry was performed on a FACS Fortessa (Becton, Dickinson and Co.) using FACSDiVa software, and data analyzed using FlowJo software (Tree Star). […]

[2] = Fractionation of lymphatic fluid into lipoprotein fractions by ultracentrifugation; format: in vivo; conditions: rat lymphatic fluid, 50 mg kg^−1 intra-duodenal
Procedure: Briefly, acetonitrile was added to a final concentration of 60–80% to bone marrow, whole blood, plasma, lymphatic fluid, lymphatic proteo-lipid sub-fractions, or mesenteric lymph node samples for compound extraction. Extraction was performed by shaking and/or bead rupture using a Precellys Evolution tissue homogenizer (Bertin Technologies SAS). […] Optimization of MS and MS/MS parameters for MRM quantitation and maximum sensitivity of individual compounds was performed using SCIEX Analyst software (AB Sciex). […] All LC-MS/MS acquisitions were performed with an independent standard curve for each group of analytes and for each individual run. All solvents utilized were of Optima LC-MS Grade (Fisher Scientific). Data was generated from n ≥ 2 individual animals per compound per study condition or dose.

[3] = tested on: pAKT (pS473) in splenocytes; assay: MPL^W515L MF mouse model: pAKT in splenocytes by flow cytometry; format: in vivo; conditions: MPL^W515L mice, oral 400 mg kg^−1 daily, 28 d
Procedure: as §1, with “A).” for “A). All phospho-flow antibodies were purchased from BD Biosciences.”
(§2) Generation of the MPL^W515L mutant MF mouse model was similar to previously described methods. […] Development of MF was evaluated by spleen volumes using MRI beginning ~14 d following bone marrow transplantation (BMT) as outlined below, continuing weekly until end of the study. […]

[4] = tested on: MPL^W515L mouse model of myelofibrosis; assay: MPL^W515L MF mouse model: immune cell numbers in spleen; format: in vivo; conditions: MPL^W515L mice, oral 400 mg kg^−1 daily, 28 d
Procedure: as §1, with “A).” for “A). All phospho-flow antibodies were purchased from BD Biosciences.”
as §2

[5] = tested on: GFP-positive MPL^W515L cells; assay: MPL^W515L MF mouse model Study 2: GFP-positive cell frequencies; format: in vivo; conditions: Study 2, MPL^W515L mice, oral 400 mg kg^−1 daily, 14 d
Procedure: as §1, with “A).” for “A). All phospho-flow antibodies were purchased from BD Biosciences.”
as §2

Sequence of BRAF (P15056 whole entry): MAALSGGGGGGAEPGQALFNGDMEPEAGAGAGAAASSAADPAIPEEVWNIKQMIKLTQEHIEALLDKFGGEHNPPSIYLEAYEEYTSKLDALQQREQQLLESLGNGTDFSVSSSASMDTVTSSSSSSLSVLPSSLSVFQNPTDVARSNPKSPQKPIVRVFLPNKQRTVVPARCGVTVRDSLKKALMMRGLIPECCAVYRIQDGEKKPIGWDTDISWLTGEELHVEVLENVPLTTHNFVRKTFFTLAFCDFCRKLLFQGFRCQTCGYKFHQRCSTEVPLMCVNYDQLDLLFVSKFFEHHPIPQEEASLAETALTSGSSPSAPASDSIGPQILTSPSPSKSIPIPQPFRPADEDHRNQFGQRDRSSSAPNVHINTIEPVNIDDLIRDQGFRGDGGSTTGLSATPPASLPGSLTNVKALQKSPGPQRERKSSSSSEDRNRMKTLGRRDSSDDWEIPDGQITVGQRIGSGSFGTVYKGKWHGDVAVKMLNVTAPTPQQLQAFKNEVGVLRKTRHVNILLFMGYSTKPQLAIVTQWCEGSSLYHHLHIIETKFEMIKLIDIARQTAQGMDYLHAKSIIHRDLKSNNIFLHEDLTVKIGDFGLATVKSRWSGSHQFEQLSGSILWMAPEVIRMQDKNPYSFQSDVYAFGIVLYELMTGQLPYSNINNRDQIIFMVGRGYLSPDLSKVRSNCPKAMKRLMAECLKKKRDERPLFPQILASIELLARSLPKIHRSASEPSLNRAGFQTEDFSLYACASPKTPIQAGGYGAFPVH

O=C(NOCCOCCOCCOCCC(=O)N1CCN(c2cnc3ccc(-c4cnc(Cl)c(NS(=O)(=O)c5ccc(F)cc5)c4)cc3n2)CC1)c1ccc(F)c(F)c1Nc1ccc(I)cc1F [LP-182, N-(2-(2-(2-(3-(4-(7-(6-chloro-5-((4-fluorophenyl)sulfonamido)pyridin-3-yl)quinoxalin-2-yl)piperazin-1-yl)-3-oxopropoxy)ethoxy)ethoxy)ethoxy)-3,4-difluoro-2-((2-fluoro-4-iodophenyl)amino)benzamide]
activity at 0.000495 µM (BRAF; 0.495 nM): 100%
Kinase Activity (%) (BRAF; 0.495 nM, 0.000495 µM): 102% and 96% and 94% and 93%
activity at 0.00152 µM (BRAF; 1.52 nM): 101%
Kinase Activity (%) (BRAF; 1.52 nM, 0.00152 µM): 98% and 95% (2×) and 94%
activity at 0.00457 µM (BRAF; 4.57 nM): 90%
Kinase Activity (%) (BRAF; 4.57 nM, 0.00457 µM): 94% and 95% and 98% and 89% and 93%
Kinase Activity (%) (BRAF; 41.2 nM, 0.0412 µM): 49% and 38% and 54% and 59% and 53% (2×)
Kinase Activity (%) (BRAF; 123 nM, 0.123 µM): 14% and 12% and 41% and 34% (2×) and 38%
Kinase Activity (%) (BRAF; 1110 nM, 1.11 µM): -5% and -3% and 2% (2×) and 4% and 5%
Kinase Activity (%) (BRAF; 3330 nM, 3.33 µM): -5% (2×) and 1% (3×) and 4%
Kinase Activity (%) (BRAF; 10000 nM, 10 µM): -2% and -5% and 2% and 1% and 7% and -1%
decrease of downstream activation of AKT [1]: ~ 50%
association with VLDL fraction, % of total [2]: 9.7%
association with chylomicron fraction, % of total [2]: 8.0%
active AKT level in splenocytes [3]: reduced active AKT and ERK1/2 levels to those comparable to healthy control mice
cell numbers of neutrophils (Neu) and megakaryocytes (MK) in the spleen [4]: decreased cell numbers
GFP-positive MPL^W515L neutrophil frequency [5]: reduced
